Reference: publication doi:10.1101/2024.10.11.617762v1 (biorxiv, 2024)

Experiments:
[1] = molecular target: T1, N-CTD (C-terminal domain of the SARS-CoV-2 nucleocapsid (N) protein) (Severe acute respiratory syndrome coronavirus 2, UniProt P0DTC9); assay: biochemical; assay type: binding
[2] = molecular target: T1, N-CTD (C-terminal domain of the SARS-CoV-2 nucleocapsid (N) protein); assay: fluorescence intensity inhibition of FAM-RNA binding; assay type: biochemical

Row | Structure (SMILES) | Kd [1] | IC50 [2]
1 | CO/N=C(\C(=O)N[C@@H]1C(=O)N2C(C(=O)O)=C(COC(N)=O)CS[C@H]12)c1ccco1 [cefuroxime] | 55 ± 4.2 µM | 15.4 ± 2.8 µM
2 | CO/N=C(\C(=O)N[C@@H]1C(=O)N2C(C(=O)O)=C(CSc3nc(=O)c(=O)[nH]n3C)CS[C@H]12)c1csc(N)n1 [ceftriaxone] | 18 ± 1.3 µM | 12.4 ± 2.4 µM
3 | CC1(C)S[C@@H]2[C@H](NC(=O)[C@H](N)c3ccccc3)C(=O)N2[C@H]1C(=O)O [ampicillin] | 28 ± 1.2 µM | 10.4 ± 0.2 µM
